Laboratory results reported in patent publication US20110152092A1, “Herbicidal compositions comprising flufenacet” (Bayer CropScience AG, priority 2009, published 2011).

Tests used:
LOLPE = test: Greenhouse trial, PO application, post-emergence action against weeds (test method 2); type: in vivo, Lolium perenne; conditions: g of AS/ha: (A) 120, (B) 1200, (C) 120, mixture 120 + 1200 + 120
Experimental: (§1) In the standard design of the test, seeds of various broad-leaved weed and weed grass biotypes (origins) were sown in a 8-13 cm diameter pot filled with natural soil of a standard field soil (loamy silt; non-sterile) and covered with a covering soil layer of about 1 cm. The pots were then cultivated in a greenhouse (12-16 h of light, temperature day 20-22° C., night 15-18° C.) until the time of application. The pots were treated on a laboratory track sprayer with spray liquors comprising the compositions according to the invention, mixtures of the prior art or components used individually. Application of the active compounds or active compound combinations formulated as WG, WP, EC or otherwise was carried out at the appropriate growth stages of the plants. The application rate for the spray application was 100-600 l of water/ha. After the treatment, the plants were returned to the greenhouses.
(§2) About 3 weeks after the application, the soil action or/and foliar action was assessed visually according to a scale of 0-100% in comparison to an untreated comparative group: 0%=no noticeable effect compared to the untreated comparative group; 100%=full effect compared to the untreated comparative group. […]

HORVS [1] = test: Greenhouse trial, PE application, selective pre-emergence action on crop (test method 3); type: in vivo, Hordeum vulgare, summer barley; conditions: g of AS/ha: (A) 90, (B) 1200, (C) 90, mixture 90 + 1200
Experimental: as §1, §2

MATCH [2] = test: Greenhouse trial, PE application with different irrigation variations (test method 6); type: in vivo, Matricaria chamomilla; conditions: g of AS/ha: (A) 120, (B) 1200, (C) 90, mixture 120 + 1200 + 90
Experimental: as §1
(§3) About 3 weeks after the application, the soil action or/and foliar action was assessed visually according to a scale of 0-100% in comparison to an untreated comparative group: 0%=no noticeable effect compared to the untreated comparative group; 100%=full effect compared to the untreated comparative group.
(§4) (notes: the term “seeds” also includes vegetative propagation forms such as, for example, rhizome pieces; abbreviations used: h light=hours of illumination, g of AS/ha=gram of active substance per hectare, l/ha=liter per hectare, S=sensitive, R=resistant) • 1. Pre-emergence action against weeds: seeds of various broad-leaved weed and weed grass biotypes (origins) were sown in a 8-13 cm diameter pot filled with natural soil of a standard field soil (loamy silt; non-sterile) and covered with a covering soil layer of about 1 cm. The pots were then cultivated in a greenhouse (12-16 h of light, temperature day 20-22° C., night 15-18° C.) until the time of application. […]

HORVS [3] = test: Greenhouse trial, PO application, selective post-emergence action on crop (test method 4); type: in vivo, Hordeum vulgare, summer barley; conditions: g of AS/ha: (A) 120, (B) 1200, (C) 120, mixture 120 + 1200 + 120
Experimental: as §1, §2

MATCH [4] = test: Greenhouse trial, activity with different soil types; type: in vivo, Matricaria chamomilla; conditions: g of AS/ha: (A) 120, (B) 1200, (C) 90, mixture 120 + 1200 + 90
Experimental: as §1, §3
(notes: the term “seeds” also includes vegetative propagation forms such as, for example, rhizome pieces; abbreviations used: h light=hours of illumination, g of AS/ha=gram of active substance per hectare, l/ha=liter per hectare, S=sensitive, R=resistant) • 1. Pre-emergence action against weeds: seeds of various broad-leaved weed and weed grass biotypes (origins) were sown in a 8-13 cm diameter pot filled with natural soil of a standard field soil (loamy silt; non-sterile) and covered with a covering soil layer of about 1 cm. The pots were then cultivated in a greenhouse (12-16 h of light, temperature day 20-22° C., night 15-18° C.) until the time of application. The pots were treated at the BBCH stage 00-10 of the seeds/plants on a laboratory track sprayer with spray liquors comprising the compositions according to the invention, mixtures or components used individually, as WG, WP, EC or other formulations. The application rate for the spray application was 100-600 l of water/ha. After the treatment, the plants were returned to the greenhouses and, when required, treated with fertilizer and watered. • 2. Post-emergence action against weeds: seeds of various broad-leaved weed and weed grass biotypes (origins) were sown in a 8-13 cm diameter pot filled with natural soil of a standard field soil (loamy silt; non-sterile) and covered with a covering soil layer of about 1 cm. The pots were then cultivated in a greenhouse (12-16 h of light, temperature day 20-22° C., night 15-18° C.) until the time of application. The pots were treated at various BBCH stages between 11-25 of the seeds/plants, i.e. generally between two to three weeks after the start of the cultivation, on a laboratory track sprayer with spray liquors comprising the compositions according to the invention, mixtures or components used individually, as WG, WP, EC or other formulations. The application rate for the spray application was 100-600 l of water/ha. After the treatment, the plants were returned to the greenhouses and, when required, treated with fertilizer and watered. • 3. […]

APESV [5] = test: Greenhouse trial, PE application at different sowing depths (test method 9); type: in vivo, Apera Spica-venti; conditions: g of AS/ha: (A) 120, (B) 1200, (C) 90, mixture 90 + 1200 + 90
Experimental: as §1, §3, §4

APESV [6] = test: Greenhouse trial, PO application, post-emergence action against weeds (test method 2); type: in vivo, Apera Spica-venti; conditions: g of AS/ha: (A) 120, (B) 1200, (C) 120, mixture 120 + 1200 + 120
Experimental: as §1, §2

STEME = test: Greenhouse trial, activity with different soil types; type: in vivo, Stellaria media; conditions: g of AS/ha: (A) 120, (B) 1200, (C) 90, mixture 120 + 1200 + 90
Experimental: as §1, §3
(notes: the term “seeds” also includes vegetative propagation forms such as, for example, rhizome pieces; abbreviations used: h light=hours of illumination, g of AS/ha=gram of active substance per hectare, l/ha=liter per hectare, S=sensitive, R=resistant) • 1. Pre-emergence action against weeds: seeds of various broad-leaved weed and weed grass biotypes (origins) were sown in a 8-13 cm diameter pot filled with natural soil of a standard field soil (loamy silt; non-sterile) and covered with a covering soil layer of about 1 cm. The pots were then cultivated in a greenhouse (12-16 h of light, temperature day 20-22° C., night 15-18° C.) until the time of application. The pots were treated at the BBCH stage 00-10 of the seeds/plants on a laboratory track sprayer with spray liquors comprising the compositions according to the invention, mixtures or components used individually, as WG, WP, EC or other formulations. The application rate for the spray application was 100-600 l of water/ha. After the treatment, the plants were returned to the greenhouses and, when required, treated with fertilizer and watered. • 2. Post-emergence action against weeds: seeds of various broad-leaved weed and weed grass biotypes (origins) were sown in a 8-13 cm diameter pot filled with natural soil of a standard field soil (loamy silt; non-sterile) and covered with a covering soil layer of about 1 cm. The pots were then cultivated in a greenhouse (12-16 h of light, temperature day 20-22° C., night 15-18° C.) until the time of application. The pots were treated at various BBCH stages between 11-25 of the seeds/plants, i.e. generally between two to three weeks after the start of the cultivation, on a laboratory track sprayer with spray liquors comprising the compositions according to the invention, mixtures or components used individually, as WG, WP, EC or other formulations. The application rate for the spray application was 100-600 l of water/ha. After the treatment, the plants were returned to the greenhouses and, when required, treated with fertilizer and watered. • 3. Selective pre-emergence action: seeds of various crop species (origins) were sown in a 8-13 cm diameter pot filled with natural soil of a standard field soil (loamy silt; non-sterile) and covered with a covering soil layer of about 1 cm. The pots were then cultivated in a greenhouse (12-16 h of light, temperature day 20-22° C., night 15-18° C.) until the time of application. The pots were treated at the BBCH stage 00-10 of the seeds/plants on a laboratory track sprayer with spray liquors comprising the compositions according to the invention, mixtures or components used individually, as WG, WP, EC or other formulations. The application rate for the spray application was 100-600 l of water/ha. […]

TRZAS = test: Greenhouse trial, PE application with different irrigation variations (test method 6); type: in vivo, Triticum aestivum, summer wheat; conditions: g of AS/ha: (A) 120, (B) 1200, (C) 90, mixture 120 + 1200 + 90
Experimental: as §1, §3
(notes: the term “seeds” also includes vegetative propagation forms such as, for example, rhizome pieces; abbreviations used: h light=hours of illumination, g of AS/ha=gram of active substance per hectare, l/ha=liter per hectare, S=sensitive, R=resistant) • 1. Pre-emergence action against weeds: seeds of various broad-leaved weed and weed grass biotypes (origins) were sown in a 8-13 cm diameter pot filled with natural soil of a standard field soil (loamy silt; non-sterile) and covered with a covering soil layer of about 1 cm. The pots were then cultivated in a greenhouse (12-16 h of light, temperature day 20-22° C., night 15-18° C.) until the time of application. The pots were treated at the BBCH stage 00-10 of the seeds/plants on a laboratory track sprayer with spray liquors comprising the compositions according to the invention, mixtures or components used individually, as WG, WP, EC or other formulations. The application rate for the spray application was 100-600 l of water/ha. After the treatment, the plants were returned to the greenhouses and, when required, treated with fertilizer and watered. • 2. Post-emergence action against weeds: seeds of various broad-leaved weed and weed grass biotypes (origins) were sown in a 8-13 cm diameter pot filled with natural soil of a standard field soil (loamy silt; non-sterile) and covered with a covering soil layer of about 1 cm. The pots were then cultivated in a greenhouse (12-16 h of light, temperature day 20-22° C., night 15-18° C.) until the time of application. […]

For `CCC(CC)Nc1c([N+](=O)[O-])cc(C)c(C)c1[N+](=O)[O-]` [(B) pendimethalin, N-(1-ethylpropyl)-3,4-dimethyl-2,6-dinitrobenzenamine], the “activity LOLPE (visual, scale 0-100%)” value (LOLPE) was 0%, the “activity on crop plant HORVS (visual, scale 0-100%)” value (HORVS [1]) was 50% and the “activity MATCH (visual, scale 0-100%)” value (MATCH [2]; irrigation from above) was 30%. For the same molecule, the “activity MATCH (visual, scale 0-100%)” value (MATCH [2]; irrigation from below) was 18%, the “activity on crop plant HORVS (visual, scale 0-100%)” value (HORVS [3]) was 10% and the “activity MATCH IU soil (visual, scale 0-100%)” value (MATCH [4]; IU soil) was 10%. The “Difference of the soil types, MATCH” value (MATCH [4]; IU/EC73 soil versus IU soil) was −10%, the “activity MATCH IU/EC73 soil (visual, scale 0-100%)” value (MATCH [4]; IU/EC73 soil) was 0% and the “activity APESV 5 mm (visual, scale 0-100%)” value (APESV [5]; sowing depth 5 mm) was 0%. For the same molecule, the “activity APESV 20 mm (visual, scale 0-100%)” value (APESV [5]; sowing depth 20 mm) was 0%, the “activity APESV (visual, scale 0-100%)” value (APESV [6]) was 0% and the “activity STEME IU soil (visual, scale 0-100%)” value (STEME; IU soil) was 85%. The “Difference of the soil types, STEME” value (STEME; IU/EC73 soil versus IU soil) was −30%, the “activity STEME IU/EC73 soil (visual, scale 0-100%)” value (STEME; IU/EC73 soil) was 55% and the “activity on crop plant TRZAS (visual, scale 0-100%)” value (TRZAS; irrigation from above) was 50%. The “activity on crop plant TRZAS (visual, scale 0-100%)” value (TRZAS; irrigation from below) was 0%.
